Values quoted from earlier work, collected in patent publication US20150297607A1, “Tricyclic Lactams for Use in the Protection of Normal Cells During Chemotherapy” (G1 Therapeutics, Inc., priority 2014, published 2015).

Details: clinical trial; Grade 3/4 neutropenia and leukopenia

CC(=O)c1c(C)c2cnc(Nc3ccc(N4CCNCC4)cn3)nc2n(C2CCCC2)c1=O [PD0332991, 6-acetyl-8-cyclopentyl-5-methyl-2-(5-piperazin-1-yl-pyridin-2-ylammino)-8H-pyrido-[2,3-d]-pyrimidin-7-one]
patients requiring a dose interruption: 71%
patients requiring a dose reduction: 35%
